45 compounds from PubChem BioAssay AID588714 (Southern Research Specialized Biocontainment Screening …, 2011) can be followed below.

Records with an inconclusive call do not appear. Calls of active or inactive are those of the source.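 Rule for the calls: active = viability below 80% at one or more tested concentrations, meaning the compound is toxic to the cells; inconclusive = replicate runs disagree on whether viability fell below 80%; inactive = viability of 80% or more at every dose.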

The subject of the first assay is Vero E6 viability, CellTiter-Glo luminescence, 72 h. Description: viability reduction of Vero E6 cells – cell-based, M18 aspartyl aminopeptidase campaign, cytotoxicity control for P. falciparum PFM18AAP inhibitor project, dose response (AID 588714).
Conditions: not given
For the compound `O=S1(=O)c2ccccc2-c2cc(-c3nc(-c4ccc(O)c(O)c4)[nH]c3-c3ccccc3)ccc21`, the 50% cytotoxic concentration (CC50) is 19.4 µM. The same measure, in the same setting: under `COc1ccc(CNc2c3ccccc3nc3ccccc23)cc1OC` stands 5.37 µM; under `CC(C)(C)C(=O)OCc1nc(-c2ccc(O)c(O)c2)cs1`, 31.6 µM.

On to `O=C1c2ccc3c4c(ccc(c24)C(=O)N1O)CC3`, for which the CC50 was 9.17 µM. The same measure, in the same setting: under `Oc1ccc(CCNc2cccc3ccccc23)cc1O` stands 16.5 µM; under `Oc1ccc(CCNC(c2ccccc2)c2ccccc2)cc1O`, 36.3 µM; under `Cc1ccc(-c2nc(-c3ccc(O)c(O)c3)cs2)cc1`, 24.5 µM. On the same count and under the same terms, as for `COc1cccc(CCNc2c3ccccc3nc3ccccc23)c1`, the figure is 8.75 µM; as for `Oc1ccc(CCNc2ccc3ccccc3c2)cc1O`, 28.3 µM.

Turning to `NCCNc1c2ccccc2nc2ccccc12`, the CC50 is 45.3 µM. Still for that read-out and setting: as for `Oc1ccc(CCNc2c3ccccc3nc3ccccc23)cc1`, the figure is 7.34 µM; as for `O=c1ccc2cc(O)c(O)cc2o1`, 38.2 µM; as for `COc1ccc(CCCNc2c3ccccc3nc3ccccc23)cc1OC`, 21.8 µM. On the same count and under the same terms, under `Cc1nc(NCCc2ccc(O)c(O)c2)c2c3c(sc2n1)CCC3` stands 43.7 µM. Take `NCc1cc2c3c(c(=O)oc2c(O)c1O)CCC3`: the half-maximal cytotoxic concentration (CC50) was 29.2 µM. Same read-out and setting: under `O=c1cc(CN2CCN(Cc3ccccc3)CC2)c2ccc(O)c(O)c2o1` stands 15.9 µM. On the same count and under the same terms, as for `COc1ccc(CCNc2c3ccccc3nc3ccccc23)cc1`, the figure is 14.9 µM; as for `COc1ccc(CCN(C)c2c3ccccc3nc3ccccc23)cc1OC`, 15.9 µM. The same measure, in the same setting: as for `CCOc1cccc(-c2nc(-c3ccc(O)c(O)c3)cs2)c1`, the figure is 21.2 µM. Take `COc1ccc(CCNc2c3ccccc3nc3ccccc23)cc1OC`: the CC50 is 12.6 µM.

For the compound `Oc1ccc(CNc2c3ccccc3nc3ccccc23)cc1O`, the CC50 is 7.78 µM.

Take `Oc1ccc(CCNc2cncc3ccccc23)cc1O`: the CC50 was 37.7 µM. Still for that read-out and setting: as for `Oc1ccc(-c2csc(Cc3cc4ccccc4[nH]3)n2)cc1O`, the figure is 15.5 µM.

Tested on in the next assay: not listed separately
Described as above. The following applies: Vero E6 viability, CellTiter-Glo luminescence, 72 h; at 25 µM (top of the series). A general note: ATP-based viability assays read luminescence as a measure of living cells.
For the compound `O=C(O)CCCCNc1c2ccccc2nc2ccccc12`, the viability was 96.8% (inactive). As to `O=C(O)CCCNc1c2ccccc2nc2ccccc12`, the viability is 103% (inactive).

Still in this assay, the particulars now being: Vero E6 viability, CellTiter-Glo luminescence, 72 h; at 50 µM (top of the series).
For the compound `O=c1cc(CO)oc(CN2CCCCC2)c1O`, the viability was 99.7% (inactive). The same measure, in the same setting: as for `COc1ccc(CCNc2ccncc2)cc1OC`, the figure is 87.5% (inactive); as for `COc1ccc(CC(=O)O)cc1OC`, 108% (inactive); as for `O=C1OCCN1CCc1nc(-c2ccc(O)c(O)c2)cs1`, 92.6% (inactive). Same read-out and setting: as for `CCC(C)c1ccc(N)c(O)c1` (stereo not given), the figure is 103% (inactive); as for `Nc1cc(C(=O)c2ccccc2)ccc1O`, 104% (inactive); as for `COc1ccc(CCN(C)c2ccncc2)cc1OC`, 83.9% (inactive). Still for that read-out and setting: under `Oc1ccc(CCNc2c3c(nc4ccccc24)CCCC3)cc1O` stands 92.2% (inactive). For `COc1ccc(CCNC2CCN(C)CC2)cc1OC`, the viability is 97.5% (inactive). The same measure, in the same setting: under `COc1ccc(CCC(=O)O)cc1OC` stands 94.6% (inactive); under `Cc1c(O)c(=O)ccn1CCNc1c2ccccc2nc2ccccc12`, 89.4% (inactive).

In the case of `COc1ccc(CCN2CCN(C)CC2)cc1OC`, the viability was 98% (inactive).

Take `O=C(c1ccco1)N1CCN(Cc2cc(=O)c(O)c[nH]2)CC1`: the viability was 100% (inactive).

For `CN(CCc1ccc(O)c(O)c1)c1ccncc1`, the viability is 99.3% (inactive). On the same count and under the same terms, under `CCC(C)C(=O)Nc1ccccc1O` (stereo not given) stands 99.8% (inactive); under `Cc1c(-c2ccccc2)[nH]c(-c2ccc(O)c(O)c2)[n+]1O`, 97.2% (inactive). In the case of `COc1ccc(CCN2CCc3ccccc3C2)cc1OC`, the viability was 86.9% (inactive). Turning to `Oc1ccc(CCN2CCc3ccccc3C2)cc1O`, the viability is 85.7% (inactive). Same read-out and setting: as for `O=C(c1ccco1)N1CCN(Cc2cc(=O)c(O)co2)CC1`, the figure is 92.2% (inactive). On the same count and under the same terms, as for `CCC(C)C(=O)Nc1ccccc1N` (stereo not given), the figure is 105% (inactive).

For orientation: CC50 means the concentration giving 50% cytotoxicity. Usually viability stands for a read-out of living cells in per cent, often relative to untreated cells.
